Several values for one entry are separate records, joined by “and”; a condition that tells them apart may be missing. Identical values can stand only once.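 Exposure lasted 48 hours, with cells grown in 96-well plates and compounds tested at five concentrations. The concentration for 50% growth inhibition is given as GI50. The concentration for full growth arrest is given as TGI.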
How the values were obtained:
Test in all cases: NCI tumour cell line growth inhibition, 48 h
[1] = system: MDA-N
[2] = system: M19-MEL melanoma
[3] = system: DMS 114 small cell lung
[4] = system: KM20L2 colon
[5] = system: LXFL 529 NSCLC
[6] = system: DLD-1 colon
[7] = system: DMS 273 small cell lung
[8] = system: XF 498 CNS
[9] = system: RXF-631 renal

| SMILES | TGI [1] [µM] | TGI [2] [µM] | TGI [3] [µM] | TGI [4] | TGI [5] [µM] | TGI [6] [µM] | TGI [7] | TGI [8] [µM] | TGI [9] [µM] | also measured |
| --- | --- | --- | --- | --- | --- | --- | --- | --- | --- | --- |
| C[C@H]1CCC/C=C/[C@@H]2C[C@H](O)C[C@H]2[C@H](O)[C@H](S(=O)c2ccc(O)cc2)CC(=O)O1 (stereo not given in full) |  |  |  |  |  |  |  |  |  | GI50 [1]: 0.0409 µM |
| CC1(C)SC2C(C(=O)O)N=C(Cc3ccccc3)N2C1C(=O)O (stereo not given) | > 100 |  |  |  |  |  |  |  |  |  |
| c1cncc(C2c3[nH]c4ccccc4c3CCN2CCCN2CCCCC2)c1 (stereo not given) |  | > 100 | > 100 | > 100 µM | > 100 | > 100 | > 100 µM | > 100 |  |  |
| CCCCCCCC1c2cc3[nH]c(cc4nc(cc5[nH]c(cc(n2)[C@@]1(C)CC(=O)N(C)C)c(C)c5CCC(=O)O)C(CCC(=O)O)=C4C)cc3C (stereo not given in full) | > 100 |  |  |  |  |  |  |  |  |  |
| CSc1nc(NC2OCC(OC(C)=O)C(OC(C)=O)C2OC(C)=O)c(N=CC=Nc2c(NC3OCC(OC(C)=O)C(OC(C)=O)C3OC(C)=O)nc(SC)n(C)c2=O)c(=O)n1C (stereo not given) |  | > 100 | > 100 | > 100 µM | > 100 | > 100 | > 100 µM |  |  |  |
| CSc1ccc(-c2cn3ccsc3n2)c(O)c1 |  |  | > 60.9 | > 100 µM | > 82.2 | > 100 | > 100 µM | > 100 | > 100 |  |
| CN1C(=O)n2c(nc3ccccc32)C(N=[N+]=[N-])(N=[N+]=[N-])C1=O (stereo not given) |  | > 100 | > 100 | > 100 µM | > 100 | > 100 | > 100 µM | > 100 | > 100 |  |
| CCOC(=O)/C(=C/c1ccc(OC)c(OC)c1)C(=O)c1ccccc1 |  | 44.1 | 32 | 38.7 µM | 25.3 | 34.5 |  | 29.9 |  |  |
| CCN1C(C)=NC2C(=O)c3ccccc3C(=O)C21 (stereo not given) |  | > 100 | > 100 | 68.2 µM | > 100 |  | > 100 µM | > 100 | > 100 |  |
| O=C(OC(C(=O)O)C(OC(=O)c1ccccc1)C(=O)O)c1ccccc1 (stereo not given) (tested in a mixture with another compound) | 43 | > 100 |  | > 100 µM and 88.7 µM |  | > 100 | > 100 µM and 14.1 µM |  |  |  |
| CC[O-].CC[O-].[O-]c1ccccc1C=Nc1ccccc1.[O-]c1ccccc1C=Nc1ccccc1.[Ti+4] |  | > 100 | > 100 | > 100 µM | > 100 | > 100 | > 100 µM | > 100 | > 100 | GI50 [2]: > 100 µM; GI50 [9]: > 100 µM; GI50 [3]: 75.2 µM; GI50 [4]: 23.7 µM; GI50 [5]: 2.94 µM; GI50 [6]: > 100 µM; GI50 [7]: 21 µM; GI50 [8]: > 100 µM |
| Cc1cc(N(CCOS(C)(=O)=O)CCOS(C)(=O)=O)ccc1C=Nc1ccc(-c2csc(-c3ccccc3)n2)c(Cl)c1 | 23.1 |  |  |  |  |  |  |  |  |  |
| CN1CCC23c4c5ccc(O)c4OC2C(=NN=C2CCC4(O)C6Cc7ccc(O)c8c7C4(CCN6C)C2O8)CCC3(O)C1C5 (stereo not given) |  | > 100 | > 100 | > 100 µM | > 100 | > 100 | > 100 µM | > 100 | > 100 |  |
| [N-]=[N+]=NC1(N=[N+]=[N-])C(=O)NN=C(c2ccccc2)C1=O (stereo not given) | 61.3 |  |  |  |  |  |  |  |  |  |
| C/C(CC(=O)CCCC(=O)Nc1ccc(Cl)cc1Cl)=N/NC(=O)CC#N |  | > 100 | > 100 | > 100 µM | > 100 | > 100 | > 100 µM | > 100 | > 100 |  |
| C[C@]12CCC[C@H](OC=O)C1(O)C[C@H](C(=O)O)CC2 (stereo not given in full) |  | > 100 | > 100 | 35.2 µM | > 100 | > 100 | > 100 µM | > 100 | > 100 |  |
| C=C1C(=O)O[C@@H]2[C@H]1CC[C@H](C)[C@]1(O)CCC(=O)[C@@]21C | > 10 |  |  |  |  |  |  |  |  |  |
| COC1=CC(=O)c2ccc(C(C)C)cc2C1(C)C1=NC(C)(C)CO1 (stereo not given) |  | > 100 | > 100 | > 100 µM | > 100 | > 100 | > 100 µM | > 100 |  |  |
| N=c1nc(N)c2cc3c(N)nc(=N)c3cc12 | 4.71 | 5.45 | 23.8 | > 100 µM | > 100 | > 100 | > 100 µM |  | 53.5 |  |
| CCC[CH2][Sn]1([CH2]CCC)[O]C(c2ccccn2)S(=O)(=O)[O]1 (stereo not given) |  | 14.4 |  | 20.2 µM | 2.92 | 12.7 | 15.5 µM | 3.55 | 2.64 | GI50 [2]: 4.1 µM; GI50 [9]: 1.3 µM; GI50 [4]: 6.65 µM; GI50 [5]: 1.54 µM; GI50 [6]: 3.31 µM; GI50 [7]: 3.29 µM; GI50 [8]: 2.08 µM |
| O=C(O)C1C2C=CC(O2)C1C(=O)Nc1ccccc1 (stereo not given) | > 100 |  |  |  |  |  |  |  |  |  |
| CC(=O)[O-].CC(=O)[O-].[Mn+2].c1ccc(/C(=N\Nc2ccccn2)c2ccccn2)cc1 | 22.5 | 14.3 | 0.0212 | 15.8 µM | 17.2 | 22.7 |  |  |  |  |
| CC1(C)CCC(=O)c2c(O)ccc(O)c21 |  | > 100 |  | > 100 µM | > 100 |  | > 100 µM |  |  |  |
| COc1cccc(/C=C(/C(=O)O)c2cc(OC)c(OC)c(OC)c2)c1 |  | > 100 | > 100 | > 100 µM | > 100 | > 100 | > 100 µM | > 100 | > 100 |  |
